Like-named read-outs stand apart in the source and are kept apart here. Numbered stars: 1 amine (or outer) side, 2 acyl side, 3 side chain; on linkers, the order of the positions; unused ones are H or OH. Bridge positions count the residues as written; N and C are the ends. Square brackets hold non-standard residues; d marks the D form. Peptide text beside a SMILES is read from it. * marks the point of attachment. X15 = COC(=O)c1ccc(NS(=O)(=O)NC(=O)C[C@H](N[*:1])C(=O)[*:2])cc1; Phe(3-CF3) = N[C@@H](Cc1cccc(C(F)(F)F)c1)C(=O)O; Ala(morpholin-4-yl) = N[C@@H](CN1CCOCC1)C(=O)O; Phe(4-COOH) = N[C@@H](Cc1ccc(C(=O)O)cc1)C(=O)O; Bip = N[C@@H](Cc1ccc(-c2ccccc2)cc1)C(=O)O; Cha = N[C@@H](CC1CCCCC1)C(=O)O; Cit = NC(=O)NCCC[C@H](N)C(=O)O; dNle = CCCC[C@@H](N)C(=O)O; Carboxymethyl = O=C(O)C*; NMeA = CN[C@@H](C)C(=O)O; Orn = NCCC[C@H](N)C(=O)O; Dab = NCC[C@H](N)C(=O)O

The assay deals with T1, PE-labeled human PD-L1-Ig binding to Jurkat cell line over-expressing human PD-1 (Jurkat-PD-1) (Homo sapiens, UniProt Q15116).
T1 construct: expressed in transfected cells; host or cells: Jurkat
T1 sequence (Q15116 25-288): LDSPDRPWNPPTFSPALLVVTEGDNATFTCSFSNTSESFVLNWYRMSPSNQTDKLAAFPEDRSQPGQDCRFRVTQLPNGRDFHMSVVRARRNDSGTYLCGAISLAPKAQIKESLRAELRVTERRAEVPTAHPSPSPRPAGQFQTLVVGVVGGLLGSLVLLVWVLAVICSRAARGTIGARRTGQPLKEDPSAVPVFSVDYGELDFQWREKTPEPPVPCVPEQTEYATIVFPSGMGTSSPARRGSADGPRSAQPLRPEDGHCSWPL
In words: Jurkat-PD-1 Cell Binding High-Content Screening Assay (CBA): Method 1.

The mark [1] stands for this setting: Jurkat-hPD-1 cells, PE-labeled PD-L1-Ig 20 nM final, read-out: Jurkat HPDL1 PD1 IC50 (uM) (Method 1).

For the molecule `CCCC[C@H]1NC(=O)[C@H](C)N(C)C(=O)[C@H](C(C)C)NC(=O)[C@H](Cc2ccc(-c3ccccc3)cc2)NC(=O)[C@H](CC(C)C)NC(=O)[C@H](Cc2c[nH]c3ccccc23)NC(=O)[C@H](CC(=O)O)NC(=O)[C@H](Cc2ccc(O)cc2)NC(=O)[C@H](Cc2ccccc2)NC(=O)CSC[C@@H](C(=O)N[C@@H](C)C(N)=O)NC(=O)[C@H](CO)NC(=O)[C@H](C(C)C)NC(=O)[C@H](CC(C)C)NC(=O)[C@H](CC(N)=O)NC1=O` [Compound 1753] ({CH2CO}-FYDWL[Bip]V[NMeA][dNle]NLVSCA-NH2; thioether N-14), the IC50 under setting [1] is 0.03 µM. The same measure, in the same setting: next, `CC(C)C[C@H]1NC(=O)[C@H](C)N(C)C(=O)[C@H](CCCNC(N)=O)NC(=O)[C@H](Cc2ccc(-c3ccccc3)cc2)NC(=O)[C@H](C(C)C)NC(=O)[C@H](Cc2c[nH]c3ccccc23)NC(=O)[C@H](CC(=O)O)NC(=O)[C@H](Cc2ccc(O)cc2)NC(=O)[C@H](Cc2ccc(OCC(=O)O)cc2)NC(=O)CSC[C@@H](C(=O)N[C@@H](C)C(N)=O)NC(=O)[C@H]([C@@H](C)O)NC(=O)[C@H](C(C)C)NC(=O)[C@H](CC2CCCCC2)NC(=O)[C@H](CCCNC(=N)N)NC1=O` [Compound 1504] ({CH2CO}-Y(Carboxymethyl)YDWV[Bip][Cit][NMeA][dL]R[Cha]VTCA-NH2; thioether N-14): 0.02 µM. As to `COC(=O)c1ccc(NS(=O)(=O)NC(=O)C[C@@H]2NC(=O)[C@H](Cc3ccc(C(=O)O)cc3)NC(=O)[C@H](CN3CCOCC3)NC(=O)CSC[C@@H](C(=O)N[C@@H](CCN)C(N)=O)NC(=O)[C@H](CCCN)NC(=O)[C@H](C(C)C)NC(=O)[C@H](CC3CCCCC3)NC(=O)[C@H](CCN)NC(=O)[C@@H](CC(C)C)NC(=O)[C@H](C)N(C)C(=O)[C@H](CCC(N)=O)NC(=O)[C@H](Cc3ccc(-c4ccccc4)cc3)NC(=O)[C@H](Cc3ccc(C(=O)O)cc3)NC(=O)[C@H](Cc3cccc(C(F)(F)F)c3)NC2=O)cc1` [Example 5083] ({CH2CO}-[Ala(morpholin-4-yl)][Phe(4-COOH)][X15][Phe(3-CF3)][Phe(4-COOH)][Bip]Q[NMeA][dL][Dab][Cha]V[Orn]C[Dab]-NH2; thioether N-14), the IC50 (Jurkat-PD-1 cells, PE-labeled PD-L1-Ig, μM, read-out: CBA Method 1 μM) turned out to be 0.355 µM. `CC[C@H](C)[C@@H]1NC(=O)[C@H](Cc2ccc(-c3ccccc3)cc2)NC(=O)[C@H](C(C)C)NC(=O)[C@H](Cc2c[nH]c3ccccc23)NC(=O)[C@H](CC(=O)O)NC(=O)[C@H](Cc2ccc(O)cc2)NC(=O)[C@H](CC(N)=O)NC(=O)CSC[C@@H](C(=O)N[C@@H](C)C(N)=O)NC(=O)[C@H]([C@@H](C)O)NC(=O)[C@H](C(C)C)NC(=O)[C@H](CC2CCCCC2)NC(=O)[C@H](CCCNC(=N)N)NC(=O)[C@@H](CC(C)C)NC(=O)[C@H](C)N(C)C1=O` [Compound 1495] ({CH2CO}-NYDWV[Bip]I[NMeA][dL]R[Cha]VTCA-NH2; thioether N-14): under setting [1], the IC50 was 0.04 µM.

Consider `CC(C)C[C@@H]1NC(=O)[C@H](CCN)NC(=O)[C@@H](CC(C)C)NC(=O)[C@H](C)N(C)C(=O)[C@H](CCCNC(=N)N)NC(=O)[C@H](Cc2ccc(-c3ccccc3)cc2)NC(=O)[C@H](C(C)C)NC(=O)[C@H](Cc2c[nH]c3ccccc23)NC(=O)[C@H](CC(=O)O)NC(=O)[C@H](Cc2ccc(O)cc2)NC(=O)[C@H](Cc2ccccc2)NC(=O)CSC[C@@H](C(=O)N[C@@H](CCC(=O)O)C(N)=O)NC(=O)[C@H]([C@@H](C)O)NC(=O)[C@H](C(C)C)NC1=O` [Compound 1175] ({CH2CO}-FYDWV[Bip]R[NMeA][dL][Dab]LVTCE-NH2; thioether N-14), for which, under setting [1], the IC50 was determined as 0.12 µM. On the same count and under the same terms, next, `CC(C)C[C@@H]1NC(=O)[C@H](CCCN)NC(=O)[C@@H](CC(C)C)NC(=O)[C@H](C)N(C)C(=O)[C@H](C(C)C)NC(=O)[C@H](Cc2ccc(-c3ccccc3)cc2)NC(=O)[C@H](C(C)C)NC(=O)[C@H](Cc2c[nH]c3ccccc23)NC(=O)[C@H](CC(=O)O)NC(=O)[C@H](Cc2ccc(O)cc2)NC(=O)[C@H](CC(N)=O)NC(=O)CSC[C@@H](C(=O)N[C@@H](C)C(N)=O)NC(=O)[C@H]([C@@H](C)O)NC(=O)[C@H](C(C)C)NC1=O` [Compound 1243] ({CH2CO}-NYDWV[Bip]V[NMeA][dL][Orn]LVTCA-NH2; thioether N-14): 0.01 µM.

For the origin of these results see patent US20240409585A1, “MACROCYCLIC IMMUNOMODULATORS” (priority 2021, published 2024).
